One test addresses T1, recombinant human COX-2 (Homo sapiens, UniProt P35354).
T1 construct: purchased Cayman Chemical, Ann Arbor, MI 700100
T1 sequence (P35354 18-604): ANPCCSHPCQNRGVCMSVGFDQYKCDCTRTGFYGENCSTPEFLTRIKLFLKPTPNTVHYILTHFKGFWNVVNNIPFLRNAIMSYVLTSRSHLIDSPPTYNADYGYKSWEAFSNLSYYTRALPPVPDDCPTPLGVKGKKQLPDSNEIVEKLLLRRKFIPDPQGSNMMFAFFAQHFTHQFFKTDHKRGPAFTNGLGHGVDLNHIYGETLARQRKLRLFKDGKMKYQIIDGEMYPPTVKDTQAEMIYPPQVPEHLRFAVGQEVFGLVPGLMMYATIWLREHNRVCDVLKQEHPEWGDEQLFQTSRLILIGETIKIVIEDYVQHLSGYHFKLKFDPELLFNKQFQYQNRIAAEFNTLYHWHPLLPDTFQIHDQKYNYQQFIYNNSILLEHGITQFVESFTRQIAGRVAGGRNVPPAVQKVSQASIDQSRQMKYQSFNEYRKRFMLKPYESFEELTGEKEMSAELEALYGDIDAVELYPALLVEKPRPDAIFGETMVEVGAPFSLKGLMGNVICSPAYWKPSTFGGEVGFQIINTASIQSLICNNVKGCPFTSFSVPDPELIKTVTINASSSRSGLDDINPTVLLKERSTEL
In words: COX Fluorescent Inhibitor Screening Assay Kit, COX-2. It counts as biochemical.

The target in the next test is T2, purified ovine COX-1 (Ovis aries, UniProt P05979).
T2 sequence (P05979 25-600): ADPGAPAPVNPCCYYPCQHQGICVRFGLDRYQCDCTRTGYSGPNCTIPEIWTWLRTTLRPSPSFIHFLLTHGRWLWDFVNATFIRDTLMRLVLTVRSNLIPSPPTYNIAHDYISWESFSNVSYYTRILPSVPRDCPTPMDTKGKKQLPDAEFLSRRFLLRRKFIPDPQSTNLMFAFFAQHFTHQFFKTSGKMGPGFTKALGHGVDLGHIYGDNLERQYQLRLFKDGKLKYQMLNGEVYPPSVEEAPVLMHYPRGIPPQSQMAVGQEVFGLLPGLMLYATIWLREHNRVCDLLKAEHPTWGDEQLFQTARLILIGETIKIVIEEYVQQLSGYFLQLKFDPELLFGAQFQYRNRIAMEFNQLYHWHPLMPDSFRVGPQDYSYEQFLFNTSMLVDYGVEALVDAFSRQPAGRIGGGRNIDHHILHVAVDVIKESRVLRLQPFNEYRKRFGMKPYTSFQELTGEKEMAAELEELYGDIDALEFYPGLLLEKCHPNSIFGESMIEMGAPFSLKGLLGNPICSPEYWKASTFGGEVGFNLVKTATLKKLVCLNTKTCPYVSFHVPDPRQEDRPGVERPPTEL
In words: COX Fluorescent Inhibitor Screening Assay Kit, COX-1.

A further test deals with COX-1. More on the design: method as in PMID 21900596. To be noted: 14C-based COX assay, previously reported by Uddin et al. ref 21; cited from earlier work.
The subject of a further test is COX-2. Details: method as in PMID 21900596. The following applies: cited from earlier work.

pIC50: −log10 of the molar value.

Procedure for purified ovine COX-1: 7.4.1 COX inhibition assay
The COX inhibition potency against ovine COX-1 and human COX-2 was determined using the
fluorescence-based COX assay ’COX Fluorescent Inhibitor Screening Assay Kit‘ (catalog number
reported by us.7 In brief, as a measure of COX mediated conversion of arachidonic acid to PG H2 in the
presence of different inhibitor concentrations this assay utilizes the peroxidase component of COX and
analyzes the formation of fluorescent resorufin. All compounds were assayed in a concentration range
of 10 nM to 100 μM, and every inhibitor concentration was assayed in duplicate.
as internal control. IC50 values were estimated using a nonlinear logistic regression ﬁtting procedure
(sigmoidal dose−response model) with Prism Software.

Consider `Cc1ccc(-c2cc(CF)nn2-c2ccc(S(C)(=O)=O)cc2)cc1` [5a], for which the negative-log IC50 (pIC50) at recombinant human COX-2 was 6.29; at purified ovine COX-1, under 4.00; in the test with COX-1, under 5.40; in the test with COX-2 (14C-based COX assay, previously reported by Uddin et al. ref 21), 6.22. Moreover, the Selectivity index on recombinant human COX-2 (IC50 (COX-1)/IC50 (COX-2)) is recorded as over 196; with COX-2 (IC50 (COX-1)/IC50 (COX-2), from values previously reported by Uddin et al. ref 21), over 7.
